Key:
[1] = system: Protein-ss-Cys in plasma from a normal donor; experiment: Protein-ss-Cys in plasma treated with two physiologically relevant oxidants; parameters: species or system human; settings: 37° C. for 30 min, with increasing oxidant concentration
Description: A. Cys containing species in normal donors' plasma (n=6); B. Plasma from a nomal donor treated with hydrogen peroxide (H2O2) and hypochlorous acid (HOCl), two oxidants commonly released from activated cells and neutrophils of patients with oxidative stress. Plasma was reaction with the indicated concentration at 37° C. for 30 min and followed by methanol extraction and analysis by LC-MS/MS-MRM as described in Example 1.

Cys disulfides in plasma = experiment: Cys and Cys disulfide changes in plasma from a patient with SCD before and after NAC infusion (LC-MS/MS-MRM)
[2] = system: NAC, Cys species and GSH in plasma/whole blood/RBC; experiment: Time course of NAC, Cys containing species and GSH in plasma/whole blood from a patient with SCD before and after NAC treatment
[3] = after NAC infusion for 1 hr at 150 mg/kg vs baseline

| NAC-ss-Cys mixed disulfide in plasma (Cys disulfides in plasma; after NAC infusion for 1 hr at 150 mg/kg) | NAC level in plasma ([2]; 24 hr time point) | NAC half time ([2]; inferred from the 24 hr level) | Fraction of NAC oxidized ([2]; plasma, at 1 hr (right after NAC infusion)) | Structure (SMILES) | Change of Protein-ss-Cys in plasma exposed to oxidant [1] | Change of Cystine in plasma (Cys disulfides in plasma; [3]) | Change of Protein-ss-Cys in plasma (Cys disulfides in plasma; [3]) | Change of total Cys in plasma (Cys disulfides in plasma; [3]) | Free Cys in plasma after NAC infusion (Cys disulfides in plasma; after NAC infusion for 1 hr at 150 mg/kg, baseline 7 μM) | Increase of GSH level ([2]; 24 hr time point compared to before treatment) [%] | Increase of free Cys in the red blood cell (RBC) fraction ([2]; RBC fraction, after NAC infusion vs before) | Free Cys in the red blood cell (RBC) fraction after NAC ([2]; RBC fraction, after NAC infusion, before 2.3 μM) [µM] | Change of free Cys in plasma ([2]; after NAC infusion vs Pre) | Change of p-ss-Cys ([2]; after NAC infusion vs Pre) | Change of total small molecular weight thiol (st-Cys) ([2]; after NAC infusion vs Pre) | Free Cys in whole blood after NAC ([2]; whole blood, after NAC infusion, before 13 μM) [µM] |
| --- | --- | --- | --- | --- | --- | --- | --- | --- | --- | --- | --- | --- | --- | --- | --- | --- |
|  |  |  |  | OO [H2O2, hydrogen peroxide] | increased |  |  |  |  |  |  |  |  |  |  |  |
|  |  |  |  | OCl [HOCl, hypochlorous acid] | increased |  |  |  |  |  |  |  |  |  |  |  |
| Detection of NAC-ss-Cys | almost not detectable | short | over 50% | CC(=O)N[C@@H](CS)C(=O)O [NAC, N-Acetyl Cysteine] |  | large decrease | large decrease | no significant changes | over 170 μM | 13 | over 10 fold | 31 | greatly increased | decreased sharply | greatly increased | 170 |
